# According to PubChem BioAssay (NCI):
#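 Where inhibition never reached the appropriate level, the endpoint shown equals the highest concentration tested. Otherwise, values were interpolated linearly from a five-concentration, 48-hour dose response in 96-well plates. TGI: total growth inhibition.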
# What was measured:
# Assay in all cases: NCI-60 cell line screen, 48 h
# 786-0 renal = tested on: 786-0 renal
# A498 renal = tested on: A498 renal
# A549 NSCLC = tested on: A549 NSCLC
# ACHN renal = tested on: ACHN renal
# CAKI-1 renal = tested on: CAKI-1 renal
# CCRF-CEM leukemia = tested on: CCRF-CEM leukemia
# COLO 205 colon = tested on: COLO 205 colon
# DLD-1 colon = tested on: DLD-1 colon
# DMS 114 small cell lung = tested on: DMS 114 small cell lung
# DMS 273 small cell lung = tested on: DMS 273 small cell lung
# EKVX NSCLC = tested on: EKVX NSCLC
# HCC-2998 colon = tested on: HCC-2998 colon
# HCT-116 colon = tested on: HCT-116 colon
# HCT-15 colon = tested on: HCT-15 colon
# HL-60(TB) leukemia = tested on: HL-60(TB) leukemia
# HOP-18 NSCLC = tested on: HOP-18 NSCLC
# HOP-62 NSCLC = tested on: HOP-62 NSCLC
# HOP-92 NSCLC = tested on: HOP-92 NSCLC
# HT29 colon = tested on: HT29 colon
# IGROV1 ovarian = tested on: IGROV1 ovarian
# K-562 leukemia = tested on: K-562 leukemia
# KM12 colon = tested on: KM12 colon
# KM20L2 colon = tested on: KM20L2 colon
# LOX IMVI melanoma = tested on: LOX IMVI melanoma
# LXFL 529 NSCLC = tested on: LXFL 529 NSCLC
# M14 melanoma = tested on: M14 melanoma
# M19-MEL melanoma = tested on: M19-MEL melanoma
# MALME-3M melanoma = tested on: MALME-3M melanoma
# MOLT-4 leukemia = tested on: MOLT-4 leukemia
# NCI-H226 lung = tested on: NCI-H226 lung
# NCI-H23 lung = tested on: NCI-H23 lung
# NCI-H460 lung = tested on: NCI-H460 lung
# OVCAR-3 ovarian = tested on: OVCAR-3 ovarian
# OVCAR-5 ovarian = tested on: OVCAR-5 ovarian
# OVCAR-8 ovarian = tested on: OVCAR-8 ovarian
# SF-268 CNS = tested on: SF-268 CNS
# SF-295 CNS = tested on: SF-295 CNS
# SF-539 CNS = tested on: SF-539 CNS
# SK-MEL-2 melanoma = tested on: SK-MEL-2 melanoma
# SK-MEL-28 melanoma = tested on: SK-MEL-28 melanoma
# SK-MEL-5 melanoma = tested on: SK-MEL-5 melanoma
# SK-OV-3 ovarian = tested on: SK-OV-3 ovarian
# SN12C renal = tested on: SN12C renal
# SNB-19 CNS = tested on: SNB-19 CNS
# SNB-75 CNS = tested on: SNB-75 CNS
# SNB-78 CNS = tested on: SNB-78 CNS
# SR leukemia = tested on: SR leukemia
# SW-620 colon = tested on: SW-620 colon
# TK-10 renal = tested on: TK-10 renal
# U251 CNS = tested on: U251 CNS
# UACC-257 melanoma = tested on: UACC-257 melanoma
# UACC-62 melanoma = tested on: UACC-62 melanoma
# UO-31 renal = tested on: UO-31 renal
# XF 498 CNS = tested on: XF 498 CNS
# BT-549 breast = tested on: BT-549 breast
# DU-145 prostate = tested on: DU-145 prostate
# HS 578T breast = tested on: HS 578T breast
# MDA-MB-231 breast = tested on: MDA-MB-231 breast
# MDA-MB-435 = tested on: MDA-MB-435
# MDA-N = tested on: MDA-N
# NCI-H522 lung = tested on: NCI-H522 lung
# OVCAR-4 ovarian = tested on: OVCAR-4 ovarian
# PC-3 prostate = tested on: PC-3 prostate
# RPMI-8226 leukemia = tested on: RPMI-8226 leukemia
# RXF 393 renal = tested on: RXF 393 renal
structure (smiles),measurement,setting,value
COc1cc2c(c(OC)c1OC)-c1[nH]ncc1CC2,TGI,786-0 renal,> 100000 nM
same,TGI,A498 renal,> 100000 nM
same,TGI,A549 NSCLC,> 100000 nM
same,TGI,ACHN renal,> 100000 nM
same,TGI,CAKI-1 renal,> 100000 nM
same,TGI,CCRF-CEM leukemia,> 100000 nM
same,TGI,COLO 205 colon,> 100000 nM
same,TGI,DLD-1 colon,> 100000 nM
same,TGI,DMS 114 small cell lung,> 100000 nM
same,TGI,DMS 273 small cell lung,> 100000 nM
same,TGI,EKVX NSCLC,> 100000 nM
same,TGI,HCC-2998 colon,> 100000 nM
same,TGI,HCT-116 colon,> 100000 nM
same,TGI,HCT-15 colon,> 100000 nM
same,TGI,HL-60(TB) leukemia,> 100000 nM
same,TGI,HOP-18 NSCLC,> 100000 nM
same,TGI,HOP-62 NSCLC,> 100000 nM
same,TGI,HOP-92 NSCLC,> 100000 nM
same,TGI,HT29 colon,> 100000 nM
same,TGI,IGROV1 ovarian,> 100000 nM
same,TGI,K-562 leukemia,> 100000 nM
same,TGI,KM12 colon,> 100000 nM
same,TGI,KM20L2 colon,> 100000 nM
same,TGI,LOX IMVI melanoma,> 100000 nM
same,TGI,LXFL 529 NSCLC,> 100000 nM
same,TGI,M14 melanoma,> 100000 nM
same,TGI,M19-MEL melanoma,> 100000 nM
same,TGI,MALME-3M melanoma,> 100000 nM
same,TGI,MOLT-4 leukemia,> 100000 nM
same,TGI,NCI-H226 lung,> 100000 nM
same,TGI,NCI-H23 lung,> 100000 nM
same,TGI,NCI-H460 lung,> 100000 nM
same,TGI,OVCAR-3 ovarian,> 100000 nM
same,TGI,OVCAR-5 ovarian,> 100000 nM
same,TGI,OVCAR-8 ovarian,> 100000 nM
same,TGI,SF-268 CNS,> 100000 nM
same,TGI,SF-295 CNS,> 100000 nM
same,TGI,SF-539 CNS,> 100000 nM
same,TGI,SK-MEL-2 melanoma,> 100000 nM
same,TGI,SK-MEL-28 melanoma,> 100000 nM
same,TGI,SK-MEL-5 melanoma,> 100000 nM
same,TGI,SK-OV-3 ovarian,> 100000 nM
same,TGI,SN12C renal,> 100000 nM
same,TGI,SNB-19 CNS,> 100000 nM
same,TGI,SNB-75 CNS,> 100000 nM
same,TGI,SNB-78 CNS,> 100000 nM
same,TGI,SR leukemia,> 100000 nM
same,TGI,SW-620 colon,> 100000 nM
same,TGI,TK-10 renal,> 100000 nM
same,TGI,U251 CNS,> 100000 nM
same,TGI,UACC-257 melanoma,> 100000 nM
same,TGI,UACC-62 melanoma,> 100000 nM
same,TGI,UO-31 renal,> 100000 nM
same,TGI,XF 498 CNS,> 100000 nM
COc1cc(-c2[nH]ccc2Cl)oc1C1=C2N=C3C=C2C(C(C)C)C1CCCCCCCC3 (centres undefined),TGI,786-0 renal,2340 nM
same,TGI,A498 renal,5310 nM
same,TGI,A549 NSCLC,2880 nM
same,TGI,ACHN renal,3120 nM
same,TGI,BT-549 breast,2320 nM
same,TGI,CAKI-1 renal,5270 nM
same,TGI,CCRF-CEM leukemia,1740 nM
same,TGI,COLO 205 colon,1870 nM
same,TGI,DLD-1 colon,2600 nM
same,TGI,DMS 114 small cell lung,1870 nM
same,TGI,DMS 273 small cell lung,1480 nM
same,TGI,DU-145 prostate,1850 nM
same,TGI,EKVX NSCLC,3510 nM
same,TGI,HCC-2998 colon,1770 nM
same,TGI,HCT-116 colon,992 nM
same,TGI,HCT-15 colon,1860 nM
same,TGI,HL-60(TB) leukemia,943 nM
same,TGI,HOP-18 NSCLC,2080 nM
same,TGI,HOP-62 NSCLC,2070 nM
same,TGI,HOP-92 NSCLC,3590 nM
same,TGI,HS 578T breast,1410 nM
same,TGI,HT29 colon,1110 nM
same,TGI,IGROV1 ovarian,2710 nM
same,TGI,K-562 leukemia,1850 nM
same,TGI,KM12 colon,2830 nM
same,TGI,KM20L2 colon,1480 nM
same,TGI,LOX IMVI melanoma,348 nM
same,TGI,LXFL 529 NSCLC,1840 nM
same,TGI,M14 melanoma,1510 nM
same,TGI,M19-MEL melanoma,1590 nM
same,TGI,MALME-3M melanoma,2490 nM
same,TGI,MDA-MB-231 breast,1560 nM
same,TGI,MDA-MB-435,1400 nM
same,TGI,MDA-N,1750 nM
same,TGI,MOLT-4 leukemia,1740 nM
same,TGI,NCI-H226 lung,3510 nM
same,TGI,NCI-H23 lung,2050 nM
same,TGI,NCI-H460 lung,1530 nM
same,TGI,NCI-H522 lung,1580 nM
same,TGI,OVCAR-3 ovarian,2050 nM
same,TGI,OVCAR-4 ovarian,2480 nM
same,TGI,OVCAR-5 ovarian,2050 nM
same,TGI,OVCAR-8 ovarian,1830 nM
same,TGI,PC-3 prostate,1370 nM
same,TGI,RPMI-8226 leukemia,5340 nM
same,TGI,RXF 393 renal,2420 nM
same,TGI,SF-268 CNS,4100 nM
same,TGI,SF-295 CNS,2390 nM
same,TGI,SF-539 CNS,2460 nM
same,TGI,SK-MEL-2 melanoma,1390 nM
same,TGI,SK-MEL-28 melanoma,2840 nM
same,TGI,SK-MEL-5 melanoma,813 nM
same,TGI,SK-OV-3 ovarian,3770 nM
same,TGI,SN12C renal,3000 nM
same,TGI,SNB-19 CNS,5920 nM
same,TGI,SNB-75 CNS,3180 nM
same,TGI,SNB-78 CNS,15500 nM
same,TGI,SR leukemia,739 nM
same,TGI,SW-620 colon,1500 nM
same,TGI,TK-10 renal,5190 nM
same,TGI,U251 CNS,1890 nM
same,TGI,UACC-257 melanoma,3180 nM
same,TGI,UACC-62 melanoma,1910 nM
same,TGI,UO-31 renal,2550 nM
same,TGI,XF 498 CNS,2760 nM
